In US20190105367A1, “ANTIMICROBIAL 4-OXOQUINOLIZINES” (Emergent Product Development Gaithersburg Inc., priority 2011, published 2019):
Like-named read-outs stand apart in the source and are kept apart here.

What was measured:
[1] = tested on: strains of A. baumannii and one strain of Acinetobacter sp.; assay: MIC with sub-inhibitory concentrations (0.25x MIC) of polymyxin B, panel of Acinetobacter strains (Example 4); assay type: cell-based; conditions: for MIC range with PB (0.25x MIC) Oct. 1, 2008 n = 8: […] polymyxin B, ATCC 19606, A329, A390 and A473 not taken; for MIC range with PB (0.25x MIC) Oct. 14, 2008 n = 11: 0.06 μg/ml polymyxin B, all strains except the ATCC strain
[2] = tested on: A. baumannii ATCC 19606; assay: MIC without and with sub-inhibitory polymyxin B (Example 4); assay type: cell-based, Acinetobacter baumannii; conditions: for MIC without PB/MIC + PB: A. baumannii ATCC 19606; for MIC: Acinetobacter baumannii
[3] = tested on: A. baumannii J2; assay: as above; assay type: cell-based, Acinetobacter baumannii; conditions: for MIC without PB/MIC + PB: A. baumannii J2; for MIC: Acinetobacter baumannii, J2, read-out: MIC +[…] PB, A. baumannii J2, +[…] polymyxin B
[4] = tested on: Acinetobacter sp. (H064200250); assay: as above; assay type: cell-based; conditions: for MIC: Acinetobacter
[5] = tested on: A. baumannii A329; assay: as above; assay type: cell-based, Acinetobacter baumannii; conditions: +0.06 μg/ml PB, 2nd experiment; for MIC without PB/MIC + PB: A. baumannii A329
[6] = tested on: A. baumannii A329; assay: Preliminary MBC without and with sub-inhibitory polymyxin B (Example 4); assay type: cell-based, Acinetobacter baumannii; conditions: Acinetobacter baumannii, A329, A. baumannii A329, +0.06 μg/ml PB, 2nd experiment, read-out: MBC
[7] = tested on: A. baumannii A387; assay: MIC without and with sub-inhibitory polymyxin B (Example 4); assay type: cell-based, Acinetobacter baumannii; conditions: for MIC: Acinetobacter baumannii
[8] = tested on: A. baumannii A387; assay: Preliminary MBC without and with sub-inhibitory polymyxin B (Example 4); assay type: cell-based, Acinetobacter baumannii; conditions: Acinetobacter baumannii
[9] = tested on: A. baumannii A390; assay: MIC without and with sub-inhibitory polymyxin B (Example 4); assay type: cell-based, Acinetobacter baumannii; conditions: +0.06 μg/ml PB, 2nd experiment; for MIC without PB/MIC + PB: A. baumannii A390; for MIC: Acinetobacter baumannii, A390, A. baumannii A390, read-out: MIC
[10] = tested on: A. baumannii A14; assay: Preliminary MBC without and with sub-inhibitory polymyxin B (Example 4); assay type: cell-based, Acinetobacter baumannii; conditions: 2nd experiment
Summary of the method: (§1)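 Incubation 18-20 h, 37° C. MBC = lowest conc. with ~90% fewer colonies than positive control (single/no colonies).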

[11] = tested on: A. baumannii A390; assay: as above; assay type: cell-based, Acinetobacter baumannii; conditions: Acinetobacter baumannii, A390, A. baumannii A390, +0.06 μg/ml PB, 2nd experiment, read-out: MBC
Summary of the method: as §1

[12] = tested on: A. baumannii A473; assay: as above; assay type: cell-based, Acinetobacter baumannii; conditions: Acinetobacter baumannii, A473, A. baumannii A473, +0.06 μg/ml PB, 2nd experiment, read-out: MBC
Summary of the method: as §1

[13] = tested on: A. baumannii NCTC 13301; assay: as above; assay type: cell-based, Acinetobacter baumannii; conditions: Acinetobacter baumannii
Summary of the method: as §1

[14] = tested on: A. baumannii A401; assay: MIC without and with sub-inhibitory polymyxin B (Example 4); assay type: cell-based, Acinetobacter baumannii; conditions: for MIC without PB/MIC + PB: A baumannii A 401, ratio, PB 0.06 μg/ml; for MIC: Acinetobacter baumannii
[15] = tested on: A. baumannii A401; assay: Preliminary MBC without and with sub-inhibitory polymyxin B (Example 4); assay type: cell-based, Acinetobacter baumannii; conditions: Acinetobacter baumannii
[16] = tested on: A. baumannii A472; assay: MIC without and with sub-inhibitory polymyxin B (Example 4); assay type: cell-based, Acinetobacter baumannii; conditions: 1st experiment; for MIC without PB/MIC + PB: A. baumannii A472, ratio; for MIC: Acinetobacter baumannii, A472, read-out: MIC +[…] PB, A. baumannii A472, +[…] polymyxin B
[17] = tested on: A. baumannii A472; assay: Preliminary MBC without and with sub-inhibitory polymyxin B (Example 4); assay type: cell-based, Acinetobacter baumannii; conditions: Acinetobacter baumannii, A472, read-out: MBC +[…] PB, A. baumannii A472; +[…] polymyxin B; preliminary MBC; 1st experiment
[18] = tested on: A. baumannii A473; assay: MIC without and with sub-inhibitory polymyxin B (Example 4); assay type: cell-based, Acinetobacter baumannii; conditions: +0.06 μg/ml PB, 2nd experiment; for MIC without PB/MIC + PB: A. baumannii A473; for MIC: Acinetobacter baumannii, A473, A. baumannii A473, read-out: MIC
[19] = tested on: A. baumannii A489; assay: Preliminary MBC without and with sub-inhibitory polymyxin B (Example 4); assay type: cell-based, Acinetobacter baumannii; conditions: Acinetobacter baumannii, preliminary MBC
[20] = tested on: A. baumannii NCTC 13301; assay: MIC without and with sub-inhibitory polymyxin B (Example 4); assay type: cell-based, Acinetobacter baumannii; conditions: for MIC without PB/MIC + PB: A. baumannii NCTC 13301, ratio, 1st experiment; for MIC: Acinetobacter baumannii, NCTC13301, read-out: MIC +[…] PB
[21] = tested on: A. baumannii NCTC 13301; assay: as above; assay type: cell-based, Acinetobacter baumannii; conditions: A. baumannii NCTC 13301; +[…] PB; 2nd experiment
[22] = tested on: A. baumannii A14; assay: as above; assay type: cell-based, Acinetobacter baumannii; conditions: 1st experiment; for MIC +0.06 μg/ml PB: +0.06 μg/ml polymyxin B; for MIC without PB/MIC + PB: ratio, PB 0.06 μg/ml
[23] = tested on: A. baumannii A14; assay: as above; assay type: cell-based, Acinetobacter baumannii; conditions: 2nd experiment
[24] = tested on: A. baumannii A14; assay: Preliminary MBC without and with sub-inhibitory polymyxin B (Example 4); assay type: cell-based, Acinetobacter baumannii; conditions: A. baumannii A14, preliminary MBC, 1st experiment; for MBC +0.06 μg/ml PB: +0.06 μg/ml polymyxin B
[25] = ratio, PB 0.06 μg/ml, 1st experiment
[26] = ATCC19606, A. baumannii ATCC 19606, +0.06 μg/ml PB, 2nd experiment, read-out: MIC
[27] = ATCC19606, read-out: MIC +0.06 μg/ml PB, A. baumannii ATCC 19606, +0.06 μg/ml polymyxin B, 1st experiment
[28] = Acinetobacter spp. H064200250 (OXA51), +[…] PB, 2nd experiment
[29] = Acinetobacter spp. H064200250, ratio, PB […], 1st experiment
[30] = read-out: MIC +[…] PB, Acinetobacter spp. H064200250, +[…] polymyxin B, 1st experiment
[31] = A. baumannii A387, +0.06 μg/ml PB, 2nd experiment
[32] = A. baumannii A387, ratio, PB 0.06 μg/ml, 1st experiment
[33] = A387, A. baumannii A387, +0.06 μg/ml PB, 2nd experiment, read-out: MIC
[34] = A387, read-out: MBC +0.06 μg/ml PB, A. baumannii A387, +0.06 μg/ml polymyxin B, 1st experiment
[35] = Acinetobacter baumannii, A14, A. baumannii A14, without PB, read-out: MBC
[36] = NCTC13301, read-out: MBC +[…] PB
[37] = A401, A baumannii A 401, +0.06 μg/ml PB, 2nd experiment, read-out: MIC
[38] = A401, read-out: MIC +0.06 μg/ml PB, A baumannii A 401, +0.06 μg/ml polymyxin B, 1st experiment
[39] = A401, A baumannii A 401, +0.06 μg/ml PB, 2nd experiment, read-out: MBC
[40] = A401, read-out: MBC +0.06 μg/ml PB, A baumannii A 401, +0.06 μg/ml polymyxin B, 1st experiment
[41] = A489, A. baumannii A489, +[…] PB, 2nd experiment, read-out: MBC
[42] = A489, read-out: MBC +[…] PB, A. baumannii A489, +[…] polymyxin B, 1st experiment
[43] = A. baumannii A14, +0.06 μg/ml PB
[44] = Acinetobacter baumannii, A14, A. baumannii A14, without PB, read-out: MIC

Cc1c(-c2ccc(N)c(F)c2)ccn2c(=O)c(C(=O)O)cc(C3CC3)c12 [Compound 1, 8-(3-fluoro-4-amino-phenyl)-1-cyclopropyl-9-methyl-4-oxo-quinolizine-3-carboxylic acid]
≤ 0.03 µg/mL: MIC [2, 26] | MIC [2, 27] | MIC ([3]; 1st experiment) | MIC [4, 30] | MIC [7, 33] | MIC ([7]; A387, read-out: MIC +0.06 μg/ml PB, A. baumannii A387, +0.06 μg/ml polymyxin B, 1st experiment) | MBC ([8]; A387, A. baumannii A387, +0.06 μg/ml PB, 2nd experiment, read-out: MBC) | MBC [8, 34] | MIC [9] | MBC [11] | MBC ([13]; NCTC13301) | MIC [14, 37] | MIC [14, 38] | MBC [15, 39] | MBC [15, 40] | MIC [16] | MBC [17] | MBC [19, 41] | MBC [19, 42] | MIC [20]
1 µg/mL: MBC [12] | MIC [18]
≥512: MIC without PB/MIC + PB ([3]; +[…] PB, 2nd experiment) | MIC without PB/MIC + PB [4, 28] | MIC without PB/MIC + PB [9]
≥32: MIC without PB/MIC + PB [7, 32]
≤0.03 to 2 µg/mL: MIC range with PB (0.25x MIC) Oct. 14, 2008 n = 11 ([1]; 2nd experiment)
2 µg/mL: MIC ([5]; Acinetobacter baumannii, A329, A. baumannii A329, read-out: MIC) | MBC [6]
0.06 µg/mL: MBC ([10]; Acinetobacter baumannii, A14, A. baumannii A14, +0.06 μg/ml PB, read-out: MBC) | MBC [13, 36] | MIC +0.06 μg/ml PB [22] | MIC ([23]; Acinetobacter baumannii, A14, A. baumannii A14, +0.06 μg/ml PB, read-out: MIC) | MBC +0.06 μg/ml PB [24]
≥256: MIC without PB/MIC + PB ([3]; ratio, PB […], 1st experiment) | MIC without PB/MIC + PB [4, 29] | MIC without PB/MIC + PB [16]
512: MIC without PB/MIC + PB [22] | MIC without PB/MIC + PB [23, 43]
8: MIC without PB/MIC + PB [5] | MIC without PB/MIC + PB [18]
32 µg/mL: MBC [10, 35] | MIC ([22]; Acinetobacter baumannii, 24 h, without polymyxin B, read-out: MIC without PB) | MIC [23, 44] | MBC ([24]; Acinetobacter baumannii, without polymyxin B, read-out: MBC without PB)
≥8: MIC without PB/MIC + PB ([2]; +0.06 μg/ml PB, 2nd experiment) | MIC without PB/MIC + PB [2, 25]
≤0.03 to 0.06 µg/mL: MIC range with PB (0.25x MIC) Oct. 1, 2008 n = 8 ([1]; 1st experiment)
≥1024: MIC without PB/MIC + PB [20] | MIC without PB/MIC + PB [21]
≥128: MIC without PB/MIC + PB [7, 31] | MIC without PB/MIC + PB ([14]; 1st experiment)

Cc1c(-c2ccc(CN)cc2)ccn2c(=O)c(C(=O)O)cc(C3CC3)c12 [Compound 5, 8-(4-aminomethyl-phenyl)-1-cyclopropyl-9-methyl-4-oxo-quinolizine-3-carboxylic acid]
0.25 to 4 µg/mL: MIC range with PB (0.25x MIC) Oct. 1, 2008 n = 8 ([1]; 1st experiment)
0.25 µg/mL: MIC +0.06 μg/ml PB ([7]; A. baumannii A387, +0.06 μg/ml polymyxin B, 1st experiment) | MBC [8, 34]
4 µg/mL: MIC [4] | MBC [10, 43] | MIC [14, 37] | MBC [15, 39] | MIC +0.06 μg/ml PB [22] | MIC [23, 43]
8: MIC without PB/MIC + PB ([2]; +0.06 μg/ml PB, 2nd experiment) | MIC without PB/MIC + PB ([3]; +[…] PB, 2nd experiment) | MIC without PB/MIC + PB [7, 32] | MIC without PB/MIC + PB ([14]; 1st experiment) | MIC without PB/MIC + PB [16] | MIC without PB/MIC + PB [18] | MIC without PB/MIC + PB [21] | MIC without PB/MIC + PB [22]
1 µg/mL: MIC [4, 30] | MIC [7, 33] | MBC [12] | MBC [13, 36] | MIC [16] | MBC [17] | MIC [18] | MBC [19, 42] | MIC [20]
0.06 µg/mL: MIC [2, 26] | MIC [2, 27]
0.5 µg/mL: MIC ([3]; 1st experiment) | MBC [19, 41]
4: MIC without PB/MIC + PB [2, 25] | MIC without PB/MIC + PB [4, 28] | MIC without PB/MIC + PB [7, 31] | MIC without PB/MIC + PB [9] | MIC without PB/MIC + PB [23, 43]
0.25 to 8 µg/mL: MIC range with PB (0.25x MIC) Oct. 14, 2008 n = 11 ([1]; 2nd experiment)
4-32: Range ratios MIC without PB/MIC with PB Oct. 14, 2008 n = 11 ([1]; 2nd experiment)
2 µg/mL: MIC [9] | MBC [11] | MIC [14, 38] | MBC [15, 40]
8 µg/mL: MBC [6] | MBC +0.06 μg/ml PB [24]
8-16: Range ratios MIC without PB/MIC with PB Oct. 1, 2008 n = 8 ([1]; 1st experiment)
1: MIC without PB/MIC + PB [5]
16 µg/mL: MBC [10, 35] | MIC [23, 44]
16: MIC without PB/MIC + PB ([3]; ratio, PB […], 1st experiment) | MIC without PB/MIC + PB [4, 29] | MIC without PB/MIC + PB [20]
